According to patent US20260347373A1, “HETEROCYCLIC COMPOUNDS, COMPOSITIONS THEREOF, AND METHODS OF TREATMENT THEREWITH” (BeOne Medicines I GmbH, priority 2023, published 2026):
Like-named read-outs stand apart in the source and are kept apart here.

Tests used:
WT KRAS = WT KRAS (Homo sapiens, UniProt P01116); assay: KRAS WT Probe Displacement Assay (TR-FRET, GDP-loaded); format: binding
Source text: (§1) The synthetic routes of probe 1 and 2, which have been disclosed in PCT/CN2022/070676, are hereby incorporated herein.

KRAS G12D = KRAS G12D (Homo sapiens, UniProt P01116, G12D); assay: KRAS G12D Probe Displacement Assay (TR-FRET, GDP-loaded); format: binding
Source text: as §1

[1] = KRAS WT, read-out: KRAS^WT Probe Displacement Assay IC50
[2] = KRAS G12D, read-out: KRAS^G12D Probe Displacement Assay IC50
[3] = KRAS^WT Probe Displacement Assay IC50, KRAS WT
[4] = KRAS^G12D Probe Displacement Assay IC50, KRAS G12D

KRAS G12D, sequence (P01116 1-188 isoform P01116-2 G12D): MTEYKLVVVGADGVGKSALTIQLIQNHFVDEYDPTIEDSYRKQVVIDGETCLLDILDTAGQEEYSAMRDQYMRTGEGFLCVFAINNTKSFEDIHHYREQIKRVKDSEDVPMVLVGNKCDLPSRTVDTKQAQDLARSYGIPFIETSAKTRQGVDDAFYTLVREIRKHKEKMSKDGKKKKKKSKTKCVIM
WT KRAS, sequence (P01116 1-188 isoform P01116-2): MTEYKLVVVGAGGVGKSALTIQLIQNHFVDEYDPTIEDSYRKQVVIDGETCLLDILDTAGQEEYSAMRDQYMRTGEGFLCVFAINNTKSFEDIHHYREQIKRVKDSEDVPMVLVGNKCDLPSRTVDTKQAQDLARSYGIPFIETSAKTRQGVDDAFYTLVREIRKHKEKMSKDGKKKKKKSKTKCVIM

Structure (SMILES) | IC50 (WT KRAS; [1]) [nM] | IC50 (KRAS G12D; [2]) [nM] | IC50 (WT KRAS; [3]) [nM] | IC50 (KRAS G12D; [4]) [nM]
Cc1nc(N)cc(-c2nc3c4c(nc(OCC5(CN6CCC(=C(F)F)CC6)CC5)nc4c2F)N2C[C@H]4CC[C@H](N4)[C@H]2CCO3)c1C(F)(F)F [Example 147, 4-((6aR,7S,10R)-13-((1-((4-(difluoromethylene)piperidin-1-yl)methyl)cyclopropyl)methoxy)-1-fluoro-5,6,6a,7,8,9,10,11-octahydro-4-oxa-3,11a,12,14,15-pentaaza-7,10-methano-cyclohepta[4,5]cycloocta [1,2,3-de]naphthalen-2-yl)-6-methyl-5-(trifluoromethyl)pyridin-2-amine] | 3 to 1000 | < 0.3 |  | 
Nc1cc(Cl)c(C(F)(F)F)c(-c2nc3c4c(nc(OCC5(CN6CCC(=C(F)F)CC6)CC5)nc4c2F)N2C[C@H]4CC[C@H](N4)[C@H]2CCO3)c1 [Example 148, 3-chloro-5-((6aR,7S,10R)-13-((1-((4-(difluoromethylene)piperidin-1-yl)methyl)cyclopropyl)methoxy)-1-fluoro-5,6,6a,7,8,9,10,11-octahydro-4-oxa-3,11a,12,14,15-pentaaza-7,10-methano-cyclohepta[4,5]cycloocta [1,2,3-de]naphthalen-2-yl)-4-(trifluoromethyl)aniline] | 0.3 to 3 | < 0.3 |  | 
Cc1cc(N)cc(-c2nc3c4c(nc(OCC5(CN6CCC(=C(F)F)C6)CC5)nc4c2F)N2C[C@H]4CC[C@H](N4)[C@H]2CCO3)c1C(F)(F)F [Example 149, 3-((6aR,7S,10R)-13-((1-((3-(difluoromethylene)pyrrolidin-1-yl)methyl)cyclopropyl)methoxy)-1-fluoro-5,6,6a,7,8,9,10,11-octahydro-4-oxa-3,11a,12,14,15-pentaaza-7,10-methano-cyclohepta[4,5]cycloocta [1,2,3-de]naphthalen-2-yl)-5-methyl-4-(trifluoromethyl) aniline] |  |  | 3 to 1000 | < 0.3
Cc1nc(N)cc(-c2nc3c4c(nc(OCC5(CN6CCC(=C(F)F)C6)CC5)nc4c2F)N2C[C@H]4CC[C@H](N4)[C@H]2CCO3)c1C(F)(F)F [Example 150, 4-((6aR,7S,10R)-13-((1-((3-(difluoromethylene)pyrrolidin-1-yl)methyl)cyclopropyl)methoxy)-1-fluoro-5,6,6a,7,8,9,10,11-octahydro-4-oxa-3,11a,12,14,15-pentaaza-7,10-methano-cyclohepta[4,5]cycloocta [1,2,3-de]naphthalen-2-yl)-6-methyl-5-(trifluoromethyl)pyridin-2-amine] | 3 to 1000 | < 0.3 |  | 
Nc1cc(Cl)c(C(F)(F)F)c(-c2nc3c4c(nc(OCC5(CN6CCC(=C(F)F)C6)CC5)nc4c2F)N2C[C@H]4CC[C@H](N4)[C@H]2CCO3)c1 [Example 151, 3-chloro-5-((6aR,7S,10R)-13-((1-((3-(difluoromethylene)pyrrolidin-1-yl)methyl)cyclopropyl)methoxy)-1-fluoro-5,6,6a,7,8,9,10,11-octahydro-4-oxa-3,11a,12,14,15-pentaaza-7,10-methano-cyclohepta[4,5]cycloocta [1,2,3-de]naphthalen-2-yl)-4-(trifluoromethyl)aniline] | 3 to 1000 | < 0.3 |  | 
CCN1CCN(CC2(COc3nc4c5c(nc(-c6cc(N)cc(C)c6C(F)(F)F)c(F)c5n3)OCC[C@@H]3[C@@H]5CC[C@H](CN43)N5)CC2)CC1 [Example 152, 3-((6aR,7S,10R)-13-((1-((4-ethylpiperazin-1-yl)methyl)cyclopropyl)methoxy)-1-fluoro-5,6,6a,7,8,9,10,11-octahydro-4-oxa-3,11a,12,14,15-pentaaza-7,10-methano-cyclohepta[4,5]cycloocta [1,2,3-de]naphthalen-2-yl)-5-methyl-4-(trifluoromethyl) aniline] |  |  | 3 to 1000 | < 0.3
Cc1cc(N)cc(-c2nc3c4c(nc(OCC5(CN6CCOCC(F)C6)CC5)nc4c2F)N2C[C@H]4CC[C@H](N4)[C@H]2CCO3)c1C(F)(F)F (stereo partly drawn) [Example 153, 3-((6aR,7S,10R)-1-fluoro-13-((1-((6-fluoro-1,4-oxazepan-4-yl)methyl)cyclopropyl)methoxy)-5,6,6a,7,8,9,10,11-octahydro-4-oxa-3,11a,12,14,15-pentaaza-7,10-methano-cyclohepta[4,5]cycloocta [1,2,3-de]naphthalen-2-yl)-5-methyl-4-(trifluoromethyl) aniline] |  |  | 3 to 1000 | < 0.3
Cc1cc(N)cc(-c2nc3c4c(nc(OCC5(CN6CCC(=CF)CC6)CC5)nc4c2F)N2C[C@H]4CC[C@H](N4)[C@H]2CCO3)c1C(F)(F)F [Example 154, 3-((6aR,7S,10R)-1-fluoro-13-((1-((4-(fluoromethylene)piperidin-1-yl)methyl)cyclopropyl)methoxy)-5,6,6a,7,8,9,10,11-octahydro-4-oxa-3,11a,12,14,15-pentaaza-7,10-methanocyclohepta[4,5]cycloocta [1,2,3-de]naphthalen-2-yl)-5-methyl-4-(trifluoromethyl)aniline] | 0.3 to 3 | < 0.3 |  | 
Cc1nc(N)cc(-c2nc3c4c(nc(OCC5(CN6CCC(=CF)CC6)CC5)nc4c2F)N2C[C@H]4CC[C@H](N4)[C@H]2CCO3)c1C(F)(F)F [Example 155, 4-((6aR,7S,10R)-1-fluoro-13-((1-((4-(fluoromethylene)piperidin-1-yl)methyl)cyclopropyl)methoxy)-5,6,6a,7,8,9,10,11-octahydro-4-oxa-3,11a,12,14,15-pentaaza-7,10-methanocyclohepta[4,5]cycloocta [1,2,3-de]naphthalen-2-yl)-6-methyl-5-(trifluoromethyl)pyridin-2-amine] | 3 to 1000 | < 0.3 |  | 
Nc1cc(Cl)c(C(F)(F)F)c(-c2nc3c4c(nc(OCC5(CN6CCC(=CF)CC6)CC5)nc4c2F)N2C[C@H]4CC[C@H](N4)[C@H]2CCO3)c1 [Example 156, 3-chloro-5-((6aR,7S,10R)-1-fluoro-13-((1-((4-(fluoromethylene)piperidin-1-yl)methyl)cyclopropyl)methoxy)-5,6,6a,7,8,9,10,11-octahydro-4-oxa-3,11a,12,14,15-pentaaza-7,10-methanocyclohepta[4,5]cycloocta [1,2,3-de]naphthalen-2-yl)-4-(trifluoromethyl)aniline] | 0.3 to 3 | < 0.3 |  | 
Cc1cc(N)cc(-c2nc3c4c(nc(OCC5(CN6CC[C@H](F)C6)CC5)nc4c2F)N2C[C@H]4CC[C@H](N4)[C@H]2CCO3)c1C(F)(F)F [Example 157, 3-((6aR,7S,10R)-1-fluoro-13-((1-(((S)-3-fluoropyrrolidin-1-yl)methyl)cyclopropyl)methoxy)-5,6,6a,7,8,9,10,11-octahydro-4-oxa-3,11a,12,14,15-pentaaza-7,10-methanocyclohepta[4,5]cycloocta[1,2,3-de]naphthalen-2-yl)-5-methyl-4-(trifluoromethyl)aniline] | 3 to 1000 | < 0.3 |  | 
Cc1cc(N)cc(-c2nc3c4c(nc(OCC5(CN6CCC7(CC6)CC7(F)F)CC5)nc4c2F)N2C[C@H]4CC[C@H](N4)[C@H]2CCO3)c1C(F)(F)F [Example 158, 3-((6aR,7S,10R)-13-((1-((1,1-difluoro-6-azaspiro[2.5]octan-6-yl)methyl)cyclopropyl)methoxy)-1-fluoro-5,6,6a,7,8,9,10,11-octahydro-4-oxa-3,11a,12,14,15-pentaaza[7,10]methanocyclohepta[4,5]cycloocta[1,2,3-de]naphthalen-2-yl)-5-methyl-4-(trifluoromethyl)aniline] | 0.3 to 3 | < 0.3 |  | 
Cc1cc(N)cc(-c2nc3c4c(nc(OCC5(CN6CCSCC6)CC5)nc4c2F)N2C[C@H]4CC[C@H](N4)[C@H]2CCO3)c1C(F)(F)F [Example 159, 3-((6aR,7S,10R)-1-fluoro-13-((1-(thiomorpholinomethyl)cyclopropyl)methoxy)-5,6,6a,7,8,9,10,11-octahydro-4-oxa-3,11a,12,14,15-pentaaza-7,10-methanocyclohepta[4,5]cycloocta[1,2,3-de]naphthalen-2-yl)-5-methyl-4-(trifluoromethyl)aniline] | 0.3 to 3 | < 0.3 |  | 
Cc1cc(N)cc(-c2nc3c4c(nc(OCC5(CN6CC=C[C@H]6C)CC5)nc4c2F)N2C[C@H]4CC[C@H](N4)[C@H]2CCO3)c1C(F)(F)F [Example 160, 3-((6aR,7S,10R)-1-fluoro-13-((1-(((R)-2-methyl-2,5-dihydro-1H-pyrrol-1-yl)methyl)cyclopropyl)methoxy)-5,6,6a,7,8,9,10,11-octahydro-4-oxa-3,11a,12,14,15-pentaaza-7,10-methanocyclohepta[4,5]cycloocta[1,2,3-de]naphthalen-2-yl)-5-methyl-4-(trifluoromethyl)aniline] | 3 to 1000 | < 0.3 |  | 
Cc1cc(N)cc(-c2nc3c4c(nc(OCC5(CN6CC=CC6CO)CC5)nc4c2F)N2C[C@H]4CC[C@H](N4)[C@H]2CCO3)c1C(F)(F)F (stereo partly drawn) [Example 161, (1-((1-((((6aR,7S,10R)-2-(5-amino-3-methyl-2-(trifluoromethyl)phenyl)-1-fluoro-5,6,6a,7,8,9,10,11-octahydro-4-oxa-3,11a,12,14,15-pentaaza-7,10-methanocyclohepta[4,5]cycloocta[1,2,3-de]naphthalen-13-yl)oxy)methyl)cyclopropyl)methyl)-2,5-dihydro-1H-pyrrol-2-yl)methanol] | 3 to 1000 | < 0.3 |  | 
Cc1cc(N)cc(-c2nc3c4c(nc(OCC5(CN6CC=CC6C6(O)CC6)CC5)nc4c2F)N2C[C@H]4CC[C@H](N4)[C@H]2CCO3)c1C(F)(F)F (stereo partly drawn) [Example 162, 1-(1-((1-((((6aR,7S,10R)-2-(5-amino-3-methyl-2-(trifluoromethyl)phenyl)-1-fluoro-5,6,6a,7,8,9,10,11-octahydro-4-oxa-3,11a,12,14,15-pentaaza-7,10-methanocyclohepta[4,5]cycloocta[1,2,3-de]naphthalen-13-yl)oxy)methyl)cyclopropyl)methyl)-2,5-dihydro-1H-pyrrol-2-yl)cyclopropan-1-ol] | 3 to 1000 | < 0.3 |  | 
